Experimental data taken from patent publication US11427869B2, “T cell balance gene expression, compositions of matters and methods of use thereof” (THE BROAD INSTITUTE, INC., priority 2015, dated 2022).

Legend:
Type in all cases: cell-based, mouse
[1] = test system: WT Th17 cells; assay: Nanostring nCounter Th17 codeset (312 genes), SFA- or control-treated WT Th17 cells; conditions: WT Th17 cells + SFA
Source text: Applicants studied the contribution of lipid saturation to Th17 cell pathogenicity. […] Applicants analyzed the expression of a 312 gene signature of Th17 cell differentiation and function (Yosef et al., 2013) in SFA- or control-treated WT Th17 cells and in PUFA- or control-treated CD5L−/− Th17 cells differentiated with TGF-81+IL-6.
T cell differentiation culture. Naïve CD4+CD44−CD62L+CD25− T cells or Effector memory CD4+CD44+CD62L− were sorted using BD FACSAria sorter and activated with plate-bound anti-CD3 and anti-CD28 antibodies (both at 2 μg/ml) in the presence of cytokines at a concentration of 2.5×10^5 cells/ml. For Th17 differentiation: 2 ng/ml of rhTGFβ1, 2 ng/ml of rhTGFβ3, 25 ng/ml rmIL-6, 20 ng/ml rmIL-18 (all from Miltenyi Biotec) and 20 ng/ml rmIL-23 (R & D systems) were used at various combinations as specified in figures. For Th1 differentiation, 20 ng/ml rmIL-12 (R & D systems); for Th2 differentiation 20 ng/ml rmIL-4 (Miltenyi Biotec); for iTreg differentiation, 2.5 ng/ml of rhTGFβ1 were used (Miltenyi Biotec). For differentiation experiments, cells were harvested at 48 hours. For restimulation experiments, cells were differentiated for 48 hours and resuspended in fresh media with no additional cytokines for 48-72 hours. Cells were re-stimulated with PMA/ionomycin for four hours before analysis for cytokines by intracellular cytokine staining. For experiments with exogenous fatty acid, fatty acids were purchased and resuspended first with serum-free media containing BSA prior being added to culture.
Nanostring nCounter. Nanostring nCounter platform (NanoString Technologies) is used to measure the number of RNA transcripts in RNA samples (FIG. 16I, FIG. 18D). A codeset containing 312 signature genes of Th17 cell differentiation and function as well as 4 additional house-keeping genes were custom-made (Yosef et al., 2013) and used in these experiments. Experimental procedures as detailed by the manufacturer is strictly followed.

[2] = test system: Th17 cells; assay: qPCR of gene expression (cyp51, sc4mol, pathogenicity signature) in Th17 cells with exogenous fatty acid
[3] = test system: Th17 cells; assay: Flow cytometry and intracellular cytokine staining of T cells; conditions: WT Th17 cells differentiated with TGF-β1+IL-6 and expanded using IL-23 with fatty acid
Procedure: WT, CD5L−/− and Rorγt−/− Th17 cells were differentiated with TGF-1+IL-6 for 96h. […] Three independent experiments were performed. […] (FIG. 18E) Naïve WT T cells were activated without polarizing cytokines (Th0) and infected with retrovirus expressing Rorγt in the presence of control-RV or CD5L-RV with or without FF-MAS (5 uM) as a source of Rorγt ligand. Each dot represents an independent infection. (FIG. 18F) WT or CD5L−/− naïve cells were differentiated with TGF-β1+IL-6. At 48h, cells were replated in fresh media with either control or FF-MAS (5 uM) as a source of Rorγt ligand. Cells were harvested for FACS analysis 72h later.
Flow cytometry and intracellular cytokine staining. Sorted naïve T cells were stimulated with phorbol 12-myristate 13-acetate (PMA) (50 ng/ml, Sigma-aldrich), ionomycin (1 μg/ml, Sigma-aldrich) and a protein transport inhibitor containing monensin (Golgistop) (BD Biosciences) for 4 h before detection by staining with antibodies.

[4] = Th17 cells differentiated with TGF-β1+IL-6

## CCCCCCCCCCCCCCCC(=O)O [SFA, palmitic acid]
[1]
  ATF2 expression (Nanostring), normalized to WT: 1.18
  Abcg2 expression (Nanostring), normalized to WT: 0.77
  Acvr2a expression (Nanostring), normalized to WT: 0.66
  Ahr expression (Nanostring), normalized to WT: 0.83
  Arl5a expression (Nanostring), normalized to WT: 0.93
  Atf4 expression (Nanostring), normalized to WT: 1.11
  BC021614 expression (Nanostring), normalized to WT: 0.96
  Bcl2l11 expression (Nanostring), normalized to WT: 0.82
  Bcl3 expression (Nanostring), normalized to WT: 0.85
  Bcl11b expression (Nanostring), normalized to WT: 0.82
  Bhlhe40 expression (Nanostring), normalized to WT: 1.22
  Casp3 expression (Nanostring), normalized to WT: 1.21
  Casp4 expression (Nanostring), normalized to WT: 0.95
  Ccl1 expression (Nanostring), normalized to WT: 0.58
  Ccl20 expression (Nanostring), normalized to WT: 0.31
  Ccr4 expression (Nanostring), normalized to WT: 0.61
  Ccr8 expression (Nanostring), normalized to WT: 0.74
  Cd9 expression (Nanostring), normalized to WT: 0.84
  Cd70 expression (Nanostring), normalized to WT: 0.89
  Cd83 expression (Nanostring), normalized to WT: 1.23
  Cd86 expression (Nanostring), normalized to WT: 0.99
  Cd247 expression (Nanostring), normalized to WT: 0.81
  Clcf1 expression (Nanostring), normalized to WT: 0.74
  Csf2 expression (Nanostring), normalized to WT: 0.97
  Ctla4 expression (Nanostring), normalized to WT: 0.81
  Cxcl10 expression (Nanostring), normalized to WT: 3.83
  Cxcr3 expression (Nanostring), normalized to WT: 0.48
  Cxcr4 expression (Nanostring), normalized to WT: 1.00
  Cxcr5 expression (Nanostring), normalized to WT: 1.17
  EBF1 expression (Nanostring), normalized to WT: 0.51
  Egr2 expression (Nanostring), normalized to WT: 1.53
  Elk3 expression (Nanostring), normalized to WT: 0.58
  Ercc5 expression (Nanostring), normalized to WT: 0.90
  Etv6 expression (Nanostring), normalized to WT: 0.94
  Faim3 expression (Nanostring), normalized to WT: 0.61
  Fli1 expression (Nanostring), normalized to WT: 0.84
  Flna expression (Nanostring), normalized to WT: 0.65
  Foxo1 expression (Nanostring), normalized to WT: 0.79
  Foxp1 expression (Nanostring), normalized to WT: 0.77
  Foxp3 expression (Nanostring), normalized to WT: 0.71
  Frmd4b expression (Nanostring), normalized to WT: 1.05
  Fxd7 expression (Nanostring), normalized to WT: 1.07
  Gap43 expression (Nanostring), normalized to WT: 1.30
  Gem expression (Nanostring), normalized to WT: 1.00
  Gimap5 expression (Nanostring), normalized to WT: 1.05
  Gja1 expression (Nanostring), normalized to WT: 0.94
  Gmfg expression (Nanostring), normalized to WT: 0.62
  Grn expression (Nanostring), normalized to WT: 0.78
  Gusb expression (Nanostring), normalized to WT: 1.02
  Hip1r expression (Nanostring), normalized to WT: 0.70
  IL-33 expression (Nanostring), normalized to WT: 1.33
  Ifih1 expression (Nanostring), normalized to WT: 0.87
  Ifng expression (Nanostring), normalized to WT: 0.55
  Ikzf3 expression (Nanostring), normalized to WT: 0.82
  Il1r1 expression (Nanostring), normalized to WT: 0.61
  Il2ra expression (Nanostring), normalized to WT: 0.71
  Il3 expression (Nanostring), normalized to WT: 2.11
  Il4ra expression (Nanostring), normalized to WT: 0.75
  Il6st expression (Nanostring), normalized to WT: 0.87
  Il7r expression (Nanostring), normalized to WT: 0.85
  Il10 expression (Nanostring), normalized to WT: 0.12
  Il10ra expression (Nanostring), normalized to WT: 0.71
  Il12rb1 expression (Nanostring), normalized to WT: 0.39
  Il12rb2 expression (Nanostring), normalized to WT: 0.88
  Il17a expression (Nanostring), normalized to WT: 0.96
  Il17f expression (Nanostring), normalized to WT: 0.90
  Il21 expression (Nanostring), normalized to WT: 1.64
  Il23r expression (Nanostring), normalized to WT: 1.12
  Il27ra expression (Nanostring), normalized to WT: 0.70
  Inhba expression (Nanostring), normalized to WT: 0.60
  Irf4 expression (Nanostring), normalized to WT: 0.68
  Irf7 expression (Nanostring), normalized to WT: 0.54
  Irf8 expression (Nanostring), normalized to WT: 0.99
  Itga3 expression (Nanostring), normalized to WT: 0.50
  Jak3 expression (Nanostring), normalized to WT: 0.91
  Jun expression (Nanostring), normalized to WT: 1.11
  Kat2b expression (Nanostring), normalized to WT: 0.69
  Klf9 expression (Nanostring), normalized to WT: 0.68
  Klf10 expression (Nanostring), normalized to WT: 0.91
  Klrd1 expression (Nanostring), normalized to WT: 0.92
  Lad1 expression (Nanostring), normalized to WT: 0.91
  Lgals3bp expression (Nanostring), normalized to WT: 0.58
  Litaf expression (Nanostring), normalized to WT: 1.48
  Lpxn expression (Nanostring), normalized to WT: 0.85
  Maf expression (Nanostring), normalized to WT: 0.79
  Maff expression (Nanostring), normalized to WT: 0.99
  Map3k5 expression (Nanostring), normalized to WT: 0.80
  Mbnl3 expression (Nanostring), normalized to WT: 0.71
  Mina expression (Nanostring), normalized to WT: 0.72
  Mt1 expression (Nanostring), normalized to WT: 1.56
  Mt2 expression (Nanostring), normalized to WT: 1.33
  Nfkbie expression (Nanostring), normalized to WT: 0.69
  Nkg7 expression (Nanostring), normalized to WT: 0.62
  Notch2 expression (Nanostring), normalized to WT: 0.78
  Oas2 expression (Nanostring), normalized to WT: 1.28
  Peli2 expression (Nanostring), normalized to WT: 0.88
  Plac8 expression (Nanostring), normalized to WT: 1.04
  Plagl1 expression (Nanostring), normalized to WT: 2.19
  Pmepa1 expression (Nanostring), normalized to WT: 0.74
  Pou2af1 expression (Nanostring), normalized to WT: 1.30
  Prkd3 expression (Nanostring), normalized to WT: 0.73
  Pstpip1 expression (Nanostring), normalized to WT: 1.16
  Rab33a expression (Nanostring), normalized to WT: 1.23
  Rasgrp1 expression (Nanostring), normalized to WT: 0.75
  Rel expression (Nanostring), normalized to WT: 1.20
  Rela expression (Nanostring), normalized to WT: 0.70
  Rfk expression (Nanostring), normalized to WT: 0.79
  Rorc expression (Nanostring), normalized to WT: 1.25
  Sap30 expression (Nanostring), normalized to WT: 1.23
  Sema7a expression (Nanostring), normalized to WT: 1.44
  Serpinb1a expression (Nanostring), normalized to WT: 0.56
  Ski expression (Nanostring), normalized to WT: 0.88
  Slc6a6 expression (Nanostring), normalized to WT: 0.79
  Smad3 expression (Nanostring), normalized to WT: 0.81
  Socs3 expression (Nanostring), normalized to WT: 0.78
  Spp1 expression (Nanostring), normalized to WT: 1.10
  Spry1 expression (Nanostring), normalized to WT: 1.57
  Stat4 expression (Nanostring), normalized to WT: 0.77
  Stat5b expression (Nanostring), normalized to WT: 0.82
  Stat6 expression (Nanostring), normalized to WT: 0.73
  Sult2b1 expression (Nanostring), normalized to WT: 0.38
  Tal2 expression (Nanostring), normalized to WT: 1.15
  Tcf4 expression (Nanostring), normalized to WT: 0.72
  Tgfb1 expression (Nanostring), normalized to WT: 0.83
  Tgfb3 expression (Nanostring), normalized to WT: 0.88
  Tgfbr3 expression (Nanostring), normalized to WT: 0.58
  Tgm2 expression (Nanostring), normalized to WT: 0.78
  Tmem229b expression (Nanostring), normalized to WT: 0.69
  Tnfrsf4 expression (Nanostring), normalized to WT: 1.28
  Tnip2 expression (Nanostring), normalized to WT: 0.90
  Trat1 expression (Nanostring), normalized to WT: 0.61
  Trim25 expression (Nanostring), normalized to WT: 0.89
  Trps1 expression (Nanostring), normalized to WT: 0.84
  Tsc22d3 expression (Nanostring), normalized to WT: 1.06
  Ubiad1 expression (Nanostring), normalized to WT: 0.94
  Vav3 expression (Nanostring), normalized to WT: 0.56
  Xrcc5 expression (Nanostring), normalized to WT: 0.93
  nrp1 expression (Nanostring), normalized to WT: 0.74
  pou2f1 expression (Nanostring), normalized to WT: 1.34
[2]; CD5L−/− Th17 cells (TGF-β1+IL-6), fatty acid 25 uM added at 48h, analyzed at 96h
  expression of cyp51 and sc4mol mRNA: modest effect
[2]; [4]
  Il22 expression (qPCR): increased
  effector molecule expression of the pathogenicity signature (Il10, Il23r, Ccl5, Csf2, Lag3; qPCR): reciprocally regulated
[3]
  IL-17 and IL-23R expression: only slightly increased
